# Measured values: publication doi:10.1101/2025.02.19.639194v1, “Bioinformatics analysis identifies sequence determinants of enzymatic activity for the PHARC associated lipase ABHD12” (biorxiv, 2025)
# Molecular target: T1, CG15111 (Drosophila melanogaster, UniProt A1ZBH2)
# T1 construct: gene Dmel\CG15111; full-length from adult fly cDNA, C-terminal FLAG tag, pRmHa3 vector, membrane fraction of transfected S2 cells
# T1 sequence (A1ZBH2 1-393): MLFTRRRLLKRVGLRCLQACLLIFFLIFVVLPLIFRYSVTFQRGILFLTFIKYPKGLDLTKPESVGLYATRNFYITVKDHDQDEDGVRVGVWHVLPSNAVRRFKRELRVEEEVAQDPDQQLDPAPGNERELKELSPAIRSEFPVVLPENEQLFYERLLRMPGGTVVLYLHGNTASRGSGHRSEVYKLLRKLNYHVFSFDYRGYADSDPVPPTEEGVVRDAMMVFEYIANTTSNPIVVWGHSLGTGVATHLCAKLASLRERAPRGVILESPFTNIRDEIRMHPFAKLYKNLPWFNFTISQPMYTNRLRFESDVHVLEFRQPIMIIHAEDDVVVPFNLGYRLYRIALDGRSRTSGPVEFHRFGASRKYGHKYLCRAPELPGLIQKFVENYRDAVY
# Assay: LC-MS lyso-PS lipase assay, release of C17:[…] FFA
# Assay type: biochemical
# Settings: 100 uM substrate, 20 ug membrane fraction of S2 cells
smiles,measurement,value
CCCCCC/C=C\CCCCCCCCC(=O)OC[C@@H](O)COP(=O)(O)OC[C@H](N)C(=O)O [C17:1 lyso-PS],"LC-MS lyso-PS lipase assay, release of C17:1 FFA",WT CG15111 had robust lyso-PS lipase activity
